PubChem BioAssay (NCI)
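Following 48 hours of exposure in 96-well plates, responses at five concentrations were used to interpolate endpoints linearly. GI50 marks 50% less growth. At the TGI there is no net growth.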

Experiments:
Experiment in all cases: growth of human tumour cells (NCI), 48 h
[1] = system: UO-31 renal
[2] = system: SR leukemia
[3] = system: KM12 colon
[4] = system: U251 CNS
[5] = system: 786-0 renal
[6] = system: SW-620 colon
[7] = system: A498 renal
[8] = system: NCI-H226 lung
[9] = system: T-47D breast

| Compound | TGI [1] | TGI [2] | TGI [3] | TGI [4] | TGI [5] | TGI [6] | GI50 [1] | GI50 [2] | GI50 [7] | TGI [7] | GI50 [4] | GI50 [5] | GI50 [8] | TGI [8] | GI50 [6] | GI50 [3] | GI50 [9] | TGI [9] |
| --- | --- | --- | --- | --- | --- | --- | --- | --- | --- | --- | --- | --- | --- | --- | --- | --- | --- | --- |
| O=C(N/C(=C\c1cccc([N+](=O)[O-])c1)c1nc2ccc([N+](=O)[O-])cc2[nH]1)c1ccccc1 | 58.9 µM | 65.6 µM | > 100 µM | > 100 µM | > 100 µM | > 100 µM | – | – | – | – | – | – | – | – | – | – | – | – |
| Cc1cc(-c2cnn3c(NCC4CC(C)(O)C4)cc(Oc4cccnc4)nc23)ccc1C(=O)NC1CC1 (configuration not stated) | > 100 µM | > 100 µM | – | > 100 µM | > 100 µM | > 100 µM | 2.02 µM | 0.525 µM | 0.435 µM | > 100 µM | 4.18 µM | 3.71 µM | > 100 µM | > 100 µM | 0.591 µM | – | – | – |
| Nc1nccc(-c2c(-c3ccc(F)cc3)ncn2C2CCC(O)CC2)n1 (configuration not stated) | > 23.2 µM | > 25 µM | > 25 µM | > 25 µM | > 25 µM | > 25 µM | 1.79 µM | 12.5 µM | 3.29 µM | > 25 µM | 9.99 µM | 10.7 µM | 5.45 µM | 24.5 µM | 13.6 µM | 7.82 µM | 3.56 µM | > 19 µM |
| CCc1ccccc1NC(=O)C1=C(C)NC(C)=C(C(=O)Nc2ccccc2CC)C1c1ccc2c(c1)OCO2 | 70.5 µM | – | 50.6 µM | 97.1 µM | > 100 µM | > 100 µM | – | – | – | 81.5 µM | – | – | – | 81.4 µM | – | – | – | – |
| CC1CN1C(=O)NCCCCCCNC(=O)N1CC1C (configuration not stated) | > 100 µM | 60.2 µM | > 100 µM | > 100 µM | > 100 µM | > 100 µM | – | – | – | > 100 µM | – | – | – | > 100 µM | – | – | – | > 100 µM |
| N#CSC1CCCCNC1=O (configuration not stated) | 31.1 µM | 38.9 µM | 31.3 µM | 42.6 µM | 32.6 µM | – | – | – | – | – | – | – | – | 25.7 µM | – | – | – | 52.5 µM |
| COc1cc(Nc2nc3ccccc3nc2-c2cccs2)cc(OC)c1OC | > 10 µM | > 100 µM | – | > 10 µM | > 100 µM | > 100 µM | – | – | – | – | – | – | – | > 100 µM | – | – | – | – |
| CC/C=C\C[C@H](F)C/C=C1/C(=O)C=C[C@@H]1C/C=C\CCCC(=O)O | 12.4 µM | 7.49 µM | 13.3 µM | 8.94 µM | 13.3 µM | 21.3 µM | 5.78 µM | 1.04 µM | 5.59 µM | 11 µM | 4.01 µM | 7.24 µM | 8.8 µM | 21 µM | 5.64 µM | 4.65 µM | 6.37 µM | 23.2 µM |
| C[C@@H]1OC(=O)N2CCCC(=C3SCCCS3)C12 (some centres not stated) | > 100 µM | – | > 100 µM | > 100 µM | > 100 µM | > 100 µM | – | – | – | > 100 µM | – | – | – | > 100 µM | – | – | – | – |
| CCN(CC)C(c1ccc(N(C)C)cc1)C(c1ccc(N(C)C)cc1)N(CC)CC (configuration not stated) | – | – | > 73 µM | > 73 µM | > 73 µM | > 73 µM | – | – | – | > 73 µM | – | – | – | > 73 µM | – | – | – | – |
| Nc1cccc(S(=O)(=O)NCC(=O)O)c1 | > 100 µM | – | > 100 µM | > 100 µM | > 100 µM | > 100 µM | – | – | – | – | – | – | – | > 100 µM | – | – | – | – |
| O=c1cc(-c2ccccc2)oc2cc(OC/C(=N/O)c3ccccc3)ccc12 | > 50 µM | > 50 µM | > 50 µM | 20 µM | > 50 µM | > 50 µM | 18.4 µM | 31.8 µM | – | – | 10.1 µM | 26.1 µM | 23.5 µM | > 50 µM | > 50 µM | 13.2 µM | > 50 µM | > 50 µM |
| COc1cc2cc(Oc3ccc(NC(=O)Nc4ccc(Cl)c(C(F)(F)F)c4)cc3)c(C)nc2cc1OCCN1CCOCC1 | 3.34 µM | – | 5.3 µM | 3.89 µM | 4.15 µM | 5.52 µM | 1.4 µM | – | 2.45 µM | 9.62 µM | 1.76 µM | 1.89 µM | 1.86 µM | 5.91 µM | 2.31 µM | 1.91 µM | 1.32 µM | 5.2 µM |
| NC1=NC(c2ccccc2)CC(c2cc(Cl)ccc2O)=N1 (configuration not stated) | 29.2 µM | 36.6 µM | 26.9 µM | 29.9 µM | 32.5 µM | 27 µM | – | – | – | 34.5 µM | – | – | – | 37.8 µM | – | – | – | – |
| CC(C)(C)c1cc(CCC(=O)Nc2ccc(Cl)cc2)nc(NC#N)n1 | > 100 µM | – | > 100 µM | > 100 µM | > 100 µM | > 100 µM | – | – | – | – | – | – | – | > 100 µM | – | – | – | – |
| CCOC(=S)SSSC(=S)OCC | – | 42.1 µM | > 100 µM | > 100 µM | 28.5 µM | > 100 µM | – | – | – | > 100 µM | – | – | – | > 100 µM | – | – | – | 60 µM |
| O=C(CC1(O)C(=O)Nc2ccccc21)c1ccncc1 (configuration not stated) | > 100 µM | > 100 µM | – | > 100 µM | > 100 µM | > 100 µM | – | – | – | > 100 µM | – | – | – | > 100 µM | – | – | – | – |
| COc1ccc2nc3c(C(=O)NCCN(C)C)cccc3nc2c1 | 47.9 µM | – | > 100 µM | 29.5 µM | > 100 µM | 81.6 µM | – | – | – | 7.54 µM | – | – | – | 38.6 µM | – | – | – | – |
| COC1(OC)CC2OC1C1N=NN(C(=O)OC(C)(C)C)C21 (configuration not stated) | > 100 µM | – | > 100 µM | > 100 µM | > 100 µM | > 100 µM | – | – | – | > 100 µM | – | – | – | > 100 µM | – | – | – | – |
| Cc1cc(N(CCC#N)CCC#N)ccc1/C=C1\N=C(c2cc([N+](=O)[O-])ccc2Cl)N(c2cccc(Cl)c2)C1=O | > 100 µM | > 100 µM | > 100 µM | > 100 µM | > 100 µM | > 100 µM | – | – | – | > 100 µM | – | – | – | > 100 µM | – | – | – | – |
| O=C(CCc1cc(-c2ccccc2)nc(=S)[nH]1)N(Cc1ccccc1)Cc1ccccc1 | > 100 µM | – | > 100 µM | > 100 µM | > 100 µM | > 100 µM | – | – | – | > 100 µM | – | – | – | > 100 µM | – | – | – | – |
| O=[N+]([O-])c1ccc(C=NC2CCCCC2)cc1 | > 100 µM | > 100 µM | > 100 µM | > 100 µM | > 100 µM | > 100 µM | – | – | – | > 100 µM | – | – | – | > 100 µM | – | – | – | – |
